Results reported in patent US8987195B2 (priority 2012, dated 2015).
pEC50, pIC50: −log10 of the molar value. Where two headings read alike, the source gives them in different places.

Key:
[1] = target: HCV NS3/4A protease genotype 1b (Hepatitis C virus genotype 1b, UniProt P26663); assay: HCV NS3/4A protease time-resolved fluorescence (TRF) assay, Ki against genotype 1b; assay type: biochemical; settings: for IC50: IC50 [gt-1b] (nM), NS3/4A genotype 1b, enzyme 0.2 nM; for pIC50: IC50 [gt-1b], NS3/4A protease TRF assay, genotype 1b enzyme 0.2 nM
Method in brief: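 Ki values come from IC50 fits corrected for substrate concentration and KM. The time-resolved fluorescence protease reaction used 25 nM peptide substrate, 2.5 h, room temperature, pH 7.5 HEPES buffer, after 30 min enzyme–inhibitor preincubation.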

HCV genotype 1b replicon = assay: HCV replicon assay, genotype 1b replicon EC50; assay type: cell-based, Hepatitis C virus; settings: Hepatitis C virus, read-out: EC50 [gt-1b]
Method in brief: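 Replicon cells (Neo^r, some luciferase:Neo^r fusion); G418 removed at plating; compound dilution series, 24-48 h. Readout: RNA by 32P-probe hybridization/protection or TaqMan, normalized to cyclophilin A RNA, or luciferase. EC50 vs DMSO control, 4-parameter fit.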

[2] = genotype 1b replicon, HCOOH salt

HCV NS3/4A protease genotype 1b, sequence (P26663 1027-1657): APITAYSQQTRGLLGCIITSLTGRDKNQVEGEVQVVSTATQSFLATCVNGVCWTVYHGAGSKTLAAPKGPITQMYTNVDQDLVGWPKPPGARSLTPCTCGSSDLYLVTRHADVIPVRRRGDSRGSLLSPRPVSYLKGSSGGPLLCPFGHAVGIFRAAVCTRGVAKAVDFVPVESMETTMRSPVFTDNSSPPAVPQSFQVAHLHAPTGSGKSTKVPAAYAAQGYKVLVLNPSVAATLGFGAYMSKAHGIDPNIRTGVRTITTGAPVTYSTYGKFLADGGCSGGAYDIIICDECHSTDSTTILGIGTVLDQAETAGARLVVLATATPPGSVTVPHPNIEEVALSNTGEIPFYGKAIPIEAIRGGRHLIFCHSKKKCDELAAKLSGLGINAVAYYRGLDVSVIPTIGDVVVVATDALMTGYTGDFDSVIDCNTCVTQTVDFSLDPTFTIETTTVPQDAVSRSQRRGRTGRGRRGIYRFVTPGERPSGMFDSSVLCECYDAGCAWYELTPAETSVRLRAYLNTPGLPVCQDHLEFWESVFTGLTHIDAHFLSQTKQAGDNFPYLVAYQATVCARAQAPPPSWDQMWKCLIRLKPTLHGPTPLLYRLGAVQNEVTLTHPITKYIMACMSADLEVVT
HCV NS3/4A protease genotype 1b, sequence (P26663 1658-1711): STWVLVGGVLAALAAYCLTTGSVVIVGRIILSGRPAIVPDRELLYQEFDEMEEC

COc1ccc2c3c(c(C4CC4)nc2c1)O[C@]1(CC3)C[C@H]2C(=O)N[C@]3(C(=O)NS(=O)(=O)C4(C)CC4)C[C@H]3/C=C\CCCCC[C@H](NC(=O)CC(C)(C)C)C(=O)N2C1 [Example 269, (2R,6S,12Z,13aS,14aR,16a5)-5′-cyclopropyl-6-[(3,3-dimethylbutanoyl)amino]-8′-methoxy-N-[(1-methylcyclopropyl)sulfonyl]-5,16-dioxo-1,1′,2′,6,7,8,9,10,11,13a,14,15,16,16a-tetradecahydrospiro[cyclopropa[e]pyrrolo[1,2-a][1,4]diazacyclopentadecine-2,3′-pyrano[2,3-c]quinoline]-14a(5H)-carboxamide]
IC50 ([1]; HCOOH salt): 0.337 nM | pEC50 (HCV genotype 1b replicon; [2]): 7.92

COc1ccc2nc(C)c3c(c2n1)[C@H](F)C[C@]1(C[C@H]2C(=O)N[C@]4(C(=O)NS(=O)(=O)C5(C)CC5)C[C@H]4/C=C\CCCCC[C@H](NC(=O)OC(C)(C)C(F)(F)F)C(=O)N2C1)O3 [Example 380, 1,1,1-trifluoro-2-methylpropan-2-yl [(2S,6S,10′R,12Z,13aS,14aR,16aS)-10′-fluoro-2′-methoxy-6′-methyl-14a-{[(1-methylcyclopropyl)sulfonyl]carbamoyl}-5,16-dioxo-1,5,6,7,8,9,9′,10,10′,11,13a,14,14a,15,16,16a-hexadecahydrospiro[cyclopropa[e]pyrrolo[1,2-a][1,4]diazacyclopentadecine-2,8′-pyrano[2,3-c][1,5]naphthyridin]-6-yl]carbamate]
pIC50 ([1]; K+ salt): 10.68 | pEC50 (HCV genotype 1b replicon; HCV replicon, genotype 1b, K+ salt): 8.25

Cc1nc2cc(F)c(F)cc2c2c1O[C@]1(CC2)C[C@H]2C(=O)N[C@]3(C(=O)NS(=O)(=O)C4(C)CC4)C[C@H]3/C=C\CCCCC[C@H](NC(=O)OC3CCCC3)C(=O)N2C1 [Example 193, cyclopentyl [(2R,6S,12Z,13aS,14aR,16aS)-8′,9′-difluoro-5′-methyl-14a-{[(1-methylcyclopropyl)sulfonyl]carbamoyl}-5,16-dioxo-1,1′,2′,5,6,7,8,9,10,11,13a,14,14a,15,16,16a-hexadecahydrospiro[cyclopropa[e]pyrrolo[1,2-a][1,4]diazacyclopentadecine-2,3′-pyrano[2,3-c]quinolin]-6-yl]carbamate]
IC50 ([1]; K+ salt): 0.007 nM | pEC50 (HCV genotype 1b replicon; genotype 1b replicon, K+ salt): 7.51

CCc1nc2ccc(OCCN3CCOCC3)cc2c2c1O[C@]1(CC2)C[C@H]2C(=O)N[C@]3(C(=O)NS(=O)(=O)C4(C)CC4)C[C@H]3/C=C\CCCCC[C@H](NC(=O)O[C@@H](C)C(C)C)C(=O)N2C1 [Example 519, (2S)-3-methylbutan-2-yl {(2R,6S,12Z,13aS,14aR,16aS)-5′-ethyl-14a-{[(1-methylcyclopropyl)sulfonyl]carbamoyl}-9′-[2-(morpholin-4-yl)ethoxy]-5,16-dioxo-1,1′,2′,5,6,7,8,9,10,11,13a,14,14a,15,16,16a-hexadecahydrospiro[cyclopropa[e]pyrrolo[1,2-a][1,4]diazacyclopentadecine-2,3′-pyrano[2,3-c]quinolin]-6-yl}carbamate]
pIC50 ([1]; HCl salt): 11.05 | pEC50 (HCV genotype 1b replicon; HCV replicon, genotype 1b, HCl salt): 9.27

Cc1nc2cc(F)c(F)cc2c2c1O[C@]1(CC2)C[C@H]2C(=O)N[C@]3(C(=O)NS(=O)(=O)C4(C)CC4)C[C@H]3/C=C\CCCCC[C@H](NC(=O)OCC3(C)CC3)C(=O)N2C1 [Example 223, (1-methylcyclopropyl)methyl [(2R,6S,12Z,13aS,14aR,16aS)-8′,9′-difluoro-5′-methyl-14a-{[(1-methylcyclopropyl)sulfonyl]carbamoyl}-5,16-dioxo-1,1′,2′,5,6,7,8,9,10,11,13a,14,14a,15,16,16a-hexadecahydrospiro[cyclopropa[e]pyrrolo[1,2-a][1,4]diazacyclopentadecine-2,3′-pyrano[2,3-c]quinolin]-6-yl]carbamate]
IC50 [1]: 0.013 nM | pEC50 (HCV genotype 1b replicon; genotype 1b replicon): 7.96

COc1ccc2c3c(c(C4CC4)nc2c1)O[C@]1(CC3)C[C@H]2C(=O)N[C@]3(C(=O)NS(=O)(=O)C4(C)CC4)C[C@H]3/C=C\CCCCC[C@H](NC(=O)OC3(C)CC3)C(=O)N2C1 [Example 135, 1-methylcyclopropyl [(2R,6S,12Z,13aS,14aR,16aS)-5′-cyclopropyl-8′-methoxy-14a-{[(1-methylcyclopropyl)sulfonyl]carbamoyl}-5,16-dioxo-1,1′,2′,5,6,7,8,9,10,11,13a,14,14a,15,16,16a-hexadecahydrospiro[cyclopropa[e]pyrrolo[1,2-a][1,4]diazacyclopentadecine-2,3′-pyrano[2,3-c]quinolin]-6-yl]carbamate]
IC50 ([1]; K+ salt): 0.037 nM | pEC50 (HCV genotype 1b replicon; genotype 1b replicon, K+ salt): 8.55

CCCOC(=O)N[C@H]1CCCCC/C=C\[C@@H]2C[C@@]2(C(=O)NS(=O)(=O)C2(C)CC2)NC(=O)[C@@H]2C[C@]3(CCc4c(c(C(F)(F)F)nc5ccc(OC)cc45)O3)CN2C1=O [Example 448, propyl [(2R,6S,12Z,13aS,14aR,16aS)-9′-methoxy-14a-{[(1-methylcyclopropyl)sulfonyl]carbamoyl}-5,16-dioxo-5′-(trifluoromethyl)-1,1′,2′,5,6,7,8,9,10,11,13a,14,14a,15,16,16a-hexadecahydrospiro[cyclopropa[e]pyrrolo[1,2-a][1,4]diazacyclopentadecine-2,3′-pyrano[2,3-c]quinolin]-6-yl]carbamate]
pIC50 [1]: 11.22 | pEC50 (HCV genotype 1b replicon; HCV replicon, genotype 1b): 8.57

Cc1nc2ccc(OC(F)(F)F)cc2c2c1O[C@@]1(C[C@H]3C(=O)N[C@]4(C(=O)NS(=O)(=O)C5(C)CC5)C[C@H]4/C=C\CCCCC[C@H](NC(=O)OC4CCCC4)C(=O)N3C1)CC2(F)F [Example 227, cyclopentyl [(2S,6S,12Z,13aS,14aR,16aS)-1′,1′-difluoro-5′-methyl-14a-{[(1-methylcyclopropyl)sulfonyl]carbamoyl}-5,16-dioxo-9′-(trifluoromethoxy)-1,1′,2′,5,6,7,8,9,10,11,13a,14,14a,15,16,16a-hexadecahydrospiro[cyclopropa[e]pyrrolo[1,2-a][1,4]diazacyclopentadecine-2,3′-pyrano[2,3-c]quinolin]-6-yl]carbamate]
IC50 ([1]; K+ salt): 0.043 nM | pEC50 (HCV genotype 1b replicon; genotype 1b replicon, K+ salt): 7.55

CCCCOC(=O)N[C@H]1CCCCC/C=C\[C@@H]2C[C@@]2(C(=O)NS(=O)(=O)C2(C)CC2)NC(=O)[C@@H]2C[C@]3(CCc4c(c(C5CC5)nc5cc(OC)ccc45)O3)CN2C1=O [Example 272, butyl [(2R,6S,12Z,13aS,14aR,16aS)-5′-cyclopropyl-8′-methoxy-14a-{[(1-methylcyclopropyl)sulfonyl]carbamoyl}-5,16-dioxo-1,1′,2′,5,6,7,8,9,10,11,13a,14,14a,15,16,16a-hexadecahydrospiro[cyclopropa[e]pyrrolo[1,2-a][1,4]diazacyclopentadecine-2,3′-pyrano[2,3-c]quinolin]-6-yl]carbamate]
IC50 ([1]; HCOOH salt): 0.116 nM | pEC50 (HCV genotype 1b replicon; [2]): 7.95

Cc1nc2ccccc2c2c1O[C@]1(CC2)C[C@H]2C(=O)N[C@]3(C(=O)NS(=O)(=O)C4(C)CC4)C[C@H]3/C=C\CCCCC[C@H](NC(=O)OC3(C(C)C)CC3)C(=O)N2C1 [Example 116, 1-(propan-2-yl)cyclopropyl [(2R,6S,12Z,13aS,14aR,16aS)-5′-methyl-14a-{[(1-methylcyclopropyl)sulfonyl]carbamoyl}-5,16-dioxo-1,1′,2′,5,6,7,8,9,10,11,13a,14,14a,15,16,16a-hexadecahydrospiro[cyclopropa[e]pyrrolo[1,2-a][1,4]diazacyclopentadecine-2,3′-pyrano[2,3-c]quinolin]-6-yl]carbamate]
IC50 [1]: 0.008 nM | pEC50 (HCV genotype 1b replicon; genotype 1b replicon): 9.51

Cc1nc2ccc(Cl)cc2c2c1O[C@]1(CC2)C[C@H]2C(=O)N[C@]3(C(=O)NS(=O)(=O)C4(C)CC4)C[C@H]3/C=C\CCCCC[C@H](NC(=O)OC(C)(C)C)C(=O)N2C1 [Example 39, tert-Butyl ((2R,6S,13aS,14aR,16aS,Z)-9′-chloro-5′-methyl-14a-(((1-methylcyclopropyl)sulfonyl)carbamoyl)-5,16-dioxo-1′,2′,3,5,6,7,8,9,10,11,13a,14,14a,15,16,16a-hexadecahydro-1H-spiro[cyclopropa[e]pyrrolo[1,2-a][1,4]diazacyclopentadecine-2,3′-pyrano[2,3-c]quuinolin]-6-yl)carbamate]
IC50 [1]: 0.004 nM | pEC50 (HCV genotype 1b replicon; genotype 1b replicon): 9.23

Cc1nc2ccc(OC(F)(F)F)cc2c2c1O[C@]1(CC2)C[C@H]2C(=O)N[C@]3(C(=O)NS(=O)(=O)C4(C)CC4)C[C@H]3/C=C\CCCCC[C@H](NC(=O)OC(C)(C)CCS(C)(=O)=O)C(=O)N2C1 [Example 226, 2-methyl-4-(methylsulfonyl)butan-2-yl [(2R,6S,12Z,13aS,14aR,16aS)-5′-methyl-14a-{[(1-methylcyclopropyl)sulfonyl]carbamoyl}-5,16-dioxo-9′-(trifluoromethoxy)-1,1′,2′,5,6,7,8,9,10,11,13a,14,14a,15,16,16a-hexadecahydrospiro[cyclopropa[e]pyrrolo[1,2-a][1,4]diazacyclopentadecine-2,3′-pyrano[2,3-c]quinolin]-6-yl]carbamate]
IC50 ([1]; K+ salt): 0.021 nM | pEC50 (HCV genotype 1b replicon; genotype 1b replicon, K+ salt): 7.75

Cc1nc2ccccc2c2c1O[C@]1(CC2)C[C@H]2C(=O)N[C@]3(C(=O)NS(=O)(=O)C4(C)CC4)C[C@H]3/C=C\CCCCC[C@H](NC(=O)OC(C)(C)C(F)(F)F)C(=O)N2C1 [Example 47]
IC50 [1]: 0.011 nM | pEC50 (HCV genotype 1b replicon; GETYPE1B|GT1B, genotype 1b replicon): 8.43
